SMILES strings stand for the structures. Converted amounts (≈) assume the structure as drawn. Like-named read-outs stand apart in the source and are kept apart here. Peptide text beside a SMILES is read from it. * marks the point of attachment. βNA = c1ccc2cc(N*)ccc2c1

This is an account of results in patent US20190125712A1, “COMPOUND FOR ENHANCING ACTIVITY OF ANTIBIOTIC COMPOSITIONS AND OVERCOMING DRUG RESISTANCE” (SHOOLINI UNIVERSITY OF BIOTECHNOLOGY AND MANAGEMENT SCIENCES, priority 2015, published 2019).

In data set [1] the test system is P. aeruginosa Strain MTCC-471 (Drug sensitive or control). The data set can be described thus: MIC, ethyl gallate as activity enhancer of antibiotics, drug sensitive P. aeruginosa. It is filed as cell-based, Pseudomonas aeruginosa. As to conditions: for MIC Antibiotic + ethyl gallate: combination with ethyl gallate; for Minimum Inhibitory Concentration (MIC): group C: antibiotic + Ethyl gallate 1000 μg/ml; for Minimum Inhibitory Concentration (MIC) / MIC: strain MTCC-471; for MIC: Pseudomonas aeruginosa, MTCC471, agent alone (group A ethyl gallate alone, group B antibiotics alone), read-out: Minimum Inhibitory Concentration (MIC); for Fold decrease in antibiotic concentration: on addition of ethyl gallate. As to the method:
(§1) This was carried out to assess the potential of the compound to enhance antimicrobial activity and overcome antibacterial resistance.
(§2) The resistant & sensitive control strains of K. pneumonia were procured from Dr. Enrique Llobet, CIBERES, Bunyola, Spain, Dr. Mazzariol of Verona University, Italy and one sensitive control strain were procured from IMTECH, Chandigarh (Table-2). Pseudomonas aeruginosa control cultures (Sensitive & Resistant) were procured from Dr. Thilo Kohler, University of Geneva, and Department of Microbiology and Molecular Medicine Geneve, Switzerland and one sensitive control strain were procured from IMTECH, Chandigarh (Table-3).

Data set [2] concerns P. aeruginosa PS11 (Drug resistant). In words: MIC, ethyl gallate as activity enhancer of antibiotics, drug resistant P. aeruginosa. The format is cell-based, Pseudomonas aeruginosa. To be noted: for MIC: strain PS11; for MIC Antibiotic + ethyl gallate: combination with ethyl gallate; for Fold decrease in antibiotic concentration: on addition of ethyl gallate. How it is done:
as §1
K. pneumonia isolate was collected from Gian Sagar medical college, Patiala and characterized in Immuno-parasitoloy Lab, Shoolini University, Solan for multidrug resistance. P. aeruginosa drug resistant strain was collected from Gian Sagar medical college, Patiala and characterized in Immunoparasitoloy Lab, Shoolini University, Solan.

For data set [3], the system named is K. pneumonia 1740 knockout (Drug resistant). It is filed as cell-based, Klebsiella pneumonia. As to conditions: for MIC Antibiotic + ethyl gallate: combination with ethyl gallate; for MIC: group C: antibiotic + Ethyl gallate 1000 μg/ml, strain 1740 knockout; for Fold decrease in antibiotic concentration: on addition of ethyl gallate. How it is done: as §1, §2

Data set [4] relates to K. pneumonia Strain 52145 (Drug sensitive or control). In words: MIC, ethyl gallate as activity enhancer of antibiotics, drug sensitive K. pneumonia. The format is cell-based, Klebsiella pneumonia. As to conditions: for MIC: Klebsiella pneumoniae; for MIC Antibiotic + ethyl gallate: combination with ethyl gallate; for Minimum Inhibitory Concentration (MIC): group C: antibiotic + Ethyl gallate 1000 μg/ml; for Fold decrease in antibiotic concentration: on addition of ethyl gallate. As to the method:
as §1, §2

The nature of data set [5]: Solubility of the extracted compound. It is filed as physicochemical. To be noted: compound extracted from T. chebula. How it is done: Then column chromatography was performed on silica gel to extract the compound. 6 fractions for T. chebula plant were obtained by column chromatography. All fractions of T. chebula were subjected for their synergistic activity. The fraction showing synergistic activity was then characterized to know the physical properties of bioactive molecule and the molecular weight of bioactive molecule was determined by LCMS and the structure was elucidated by NMR.

For a further data set, the system named is Pseudomonas aeruginosa. To be noted: against Pseudomonas aeruginosa; Barrett J F (2001); cited from earlier work.
The mark [6] stands for this setting: Sensitive Strain, P. aeruginosa MTCC-471.
The mark [7] stands for this setting: Pseudomonas aeruginosa, agent alone (group A ethyl gallate alone, group B antibiotics alone), read-out: MIC.
Setting [8] is: Resistant Strain, P. aeruginosa PS11.
The mark [9] stands for this setting: group C: antibiotic + Ethyl gallate 1000 μg/ml.
[10] abbreviates: Resistant Strain, K. pneumonia 1740 knockout.
The mark [11] stands for this setting: agent alone (group A ethyl gallate alone, group B antibiotics alone), strain 52145, read-out: Minimum Inhibitory Concentration (MIC).
The mark [12] stands for this setting: Sensitive Strain, K. pneumonia 52145.
Where [13] appears, read: Table 4 (K. pneumonia, both strains), agent alone, read-out: MIC.

For `O=C(O)c1cn(C2CC2)c2cc(N3CCNCC3)c(F)cc2c1=O` [Ciprofloxacin], the MIC Antibiotic + ethyl gallate in data set [1] (setting [6]) came to 0.06 µg/mL; in data set [2] (setting [8]) it was 1 µg/mL; in data set [3] (setting [10]) it was 0.003 µg/mL; in data set [4] (setting [12]), 0.003. The “Minimum Inhibitory Concentration (MIC)” value amounted to 0.060 µg/mL in data set [1] and 0.003 µg/mL in data set [4] (strain 52145). Besides, the MIC in data set [2] (setting [7]) was 2 µg/mL; in data set [2] (setting [9]), 1.00 µg/mL; in data set [3] it was 0.003 µg/mL; in data set [4] (setting [11]), 0.06 µg/mL. In addition, the figures for the MIC Antibiotic Alone in data set [2] (setting [8]) and in data set [4] (setting [12]) were 2 µg/mL and 0.060, respectively.
Take `CN(C)[C@@H]1C(O)=C(C(N)=O)C(=O)[C@@]2(O)C(O)=C3C(=O)c4c(O)cccc4[C@@](C)(O)[C@H]3C[C@@H]12` [Tetracycline]: the MIC in data set [1] was determined as 0.125 µg/mL; in data set [2] (setting [7]), 2 µg/mL; in data set [2] (setting [9]) it was 0.50 µg/mL; in data set [3], 0.500 µg/mL; in data set [4] (setting [13]), 2 µg/mL; in data set [4] (setting [11]) it was 2 µg/mL. Also, the MIC Antibiotic Alone in data set [1] (setting [6]) worked out at 0.125 µg/mL; in data set [2] (setting [8]), 2 µg/mL; in data set [3] (setting [10]), 2 µg/mL (≈ 4.5 µM); in data set [4] (setting [12]) it was 2.000. The MIC Antibiotic + ethyl gallate in data set [1] (setting [6]) came out at 0.06 µg/mL; in data set [2] (setting [8]), 0.5 µg/mL; in data set [3] (setting [10]), 0.5 µg/mL; in data set [4] (setting [12]) it was 0.500. The “Minimum Inhibitory Concentration (MIC)” value amounted to 0.060 µg/mL in data set [1] and 0.500 µg/mL in data set [4] (strain 52145). The “Fold decrease in antibiotic concentration” value in data set [1] (setting [6]) amounted to 2 fold; in data set [2] (setting [8]), 4 fold; in data set [3] (setting [10]) it was 4 fold; in data set [4] (setting [12]), 4 fold.
Consider `CCOC(=O)c1cc(O)c(O)c(O)c1` [Ethyl gallate, ethyl gallate], for which the MIC was 0.06 µg/mL in data set [1], 2 µg/mL in data set [2] (setting [7]), 2 µg/mL in data set [4] (setting [13]) and 2 µg/mL in data set [4] (setting [11]). The MIC Ethyl gallate in data set [1] (Sensitive Strain, P. aeruginosa MTCC-471, ethyl gallate alone) was found to be 0.06 µg/mL; in data set [2] (Resistant Strain, P. aeruginosa PS11, ethyl gallate alone), 2 µg/mL; in data set [3] (Resistant Strain, K. pneumonia 1740 knockout, ethyl gallate alone) it was 2 µg/mL (≈ 10.1 µM); in data set [4] (Sensitive Strain, K. pneumonia 52145, ethyl gallate alone), 2.000. In addition, in data set [5], the solubility result was “soluble in methanol and water”.
Regarding `O=C(N[C@H](CO)[C@H](O)c1ccc([N+](=O)[O-])cc1)C(Cl)Cl` [Chloramphenicol], the MIC in data set [1] was determined as 1 µg/mL; in data set [2] (setting [7]), 2 µg/mL; in data set [2] (setting [9]), 1.00 µg/mL; in data set [3], 0.500 µg/mL; in data set [4] (setting [13]), 2 µg/mL; in data set [4] (setting [11]) it was 2 µg/mL. In addition, the MIC Antibiotic Alone in data set [1] (setting [6]) is 1 µg/mL; in data set [2] (setting [8]), 2 µg/mL; in data set [3] (setting [10]) it was 2 µg/mL (≈ 6.19 µM); in data set [4] (setting [12]) it was 2.000. The MIC Antibiotic + ethyl gallate in data set [1] (setting [6]) was 0.05 µg/mL; in data set [2] (setting [8]), 1 µg/mL; in data set [3] (setting [10]) it was 0.5 µg/mL; in data set [4] (setting [12]), 1.000. The “Minimum Inhibitory Concentration (MIC)” value in data set [1] was 0.050 µg/mL; in data set [4] (strain 52145) it was 1.000 µg/mL. The “Fold decrease in antibiotic concentration” value worked out at 20 fold in data set [1] (setting [6]), 2 fold in data set [2] (setting [8]), 4 fold in data set [3] (setting [10]) and 2 fold in data set [4] (setting [12]).
`N=C(N)NCCC[C@H](NC(=O)[C@@H](N)Cc1ccccc1)C(=O)Nc1ccc2ccccc2c1` [PAβN, L-phenylalanyl-L-arginyl-b naphthylamide] (H-Phe-Arg-βNA): the “potentiation of the activity of levofloxacin” value in the data set on Pseudomonas aeruginosa is 8 fold.
